Target: T1, Gag-Pol polyprotein [588-1027]/[588-1147] (Human immunodeficiency virus 1, UniProt P04585)
T1 construct: 588-1027; 588-1147
Assay: HIV-1 RT Assay
Settings: pH 8; 37 °C

In order of falling IC50:
1. CCc1c(C)nc(O)c(N)c1C(=O)c1cc(C)cc(C)c1 [3-amino-4-[(3,5-dimethylphenyl)carbonyl]-5-ethyl-6-methyl-1,2-dihydropyridin-2-one]  0.1 µM
2. CCc1c(C)nc(O)c(N)c1Cc1cc(C)cc(C)c1 [3-amino-4-[(3,5-dimethylphenyl)methyl]-5-ethyl-6-methyl-1,2-dihydropyridin-2-one]  0.1 µM
3. CCc1c(C)[nH]c(=O)c([N+](=O)[O-])c1Sc1cc(C)cc(C)c1 [4-[(3,5-dimethylphenyl)sulfanyl]-5-ethyl-6-methyl-3-nitro-1,2-dihydropyridin-2-one]  0.03 µM

From BindingDB's records for doi:10.1021/jm0009437 (Institut Curie, 2000)
